Reference: PubChem BioAssay (NCI)
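Abbreviation: GI50, concentration required for 50% inhibition of growth. At the TGI there is no net growth.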

Experiments:
Test in all cases: NCI-60 cell line screen, 384-well format
DU-145 prostate = tested on: DU-145 prostate
HCC-2998 colon = tested on: HCC-2998 colon
HT29 colon = tested on: HT29 colon
KM12 colon = tested on: KM12 colon
MDA-MB-435 melanoma = tested on: MDA-MB-435 melanoma
OVCAR-4 ovarian = tested on: OVCAR-4 ovarian
OVCAR-8 ovarian = tested on: OVCAR-8 ovarian
PC-3 prostate = tested on: PC-3 prostate
RPMI-8226 leukemia = tested on: RPMI-8226 leukemia
RXF 393 renal = tested on: RXF 393 renal
SF-268 CNS = tested on: SF-268 CNS
SK-OV-3 ovarian = tested on: SK-OV-3 ovarian
U251 glioblastoma = tested on: U251 glioblastoma

Row | SMILES | GI50 (DU-145 prostate) [µM] | TGI (DU-145 prostate) [µM] | GI50 (HCC-2998 colon) [µM] | TGI (HCC-2998 colon) [µM] | GI50 (HT29 colon) [µM] | TGI (HT29 colon) [µM] | GI50 (KM12 colon) [µM] | TGI (KM12 colon) [µM] | GI50 (MDA-MB-435 melanoma) [µM] | TGI (MDA-MB-435 melanoma) [µM] | GI50 (OVCAR-4 ovarian) [µM] | TGI (OVCAR-4 ovarian) [µM] | GI50 (OVCAR-8 ovarian) [µM] | TGI (OVCAR-8 ovarian) [µM] | GI50 (PC-3 prostate) [µM] | TGI (PC-3 prostate) [µM] | GI50 (RPMI-8226 leukemia) [µM] | TGI (RPMI-8226 leukemia) [µM] | GI50 (RXF 393 renal) [µM] | TGI (RXF 393 renal) [µM] | further results
1 | O=C(NC[C@H](O)CN1CCc2ccccc2C1)c1cc(NC2COC2)ncn1 | > 100 | > 100 | > 100 | > 100 | > 100 | > 100 | > 42.7 | > 100 | > 100 | > 100 | 21.8 | > 100 | > 100 | > 100 | > 100 | > 100 | > 47.7 | > 100 | > 100 | > 100 | GI50 (SF-268 CNS): > 100 µM; TGI (SF-268 CNS): > 100 µM; GI50 (SK-OV-3 ovarian): > 100 µM; TGI (SK-OV-3 ovarian): > 100 µM; GI50 (U251 glioblastoma): > 100 µM; TGI (U251 glioblastoma): > 100 µM
2 | CN1CCN(c2ccc(Nc3cc(-c4cccc(-n5ccc6cc(C7CC7)cc(F)c6c5=O)c4CO)cn(C)c3=O)nc2)CC1 | 2.97 | 9.08 | 2.09 | 5.3 | 1.72 | 3.19 | 2.4 | 5.1 | 3.59 | 11.7 | 1.63 | 3.11 | 1.79 | 3.56 | 3.78 | 12.1 | 2.06 | 3.56 | 1.6 | 3.11 | GI50 (SF-268 CNS): 2.4 µM; TGI (SF-268 CNS): 7.46 µM; GI50 (SK-OV-3 ovarian): 2.59 µM; TGI (SK-OV-3 ovarian): 6.61 µM; GI50 (U251 glioblastoma): 2.2 µM; TGI (U251 glioblastoma): 4.54 µM
